Reference: patent publication US12473250B2, “Molecular design of new antibiotics and antibiotic adjuvants against MCR strains” (priority 2019, dated 2025)
Values after ≈ are worked out from the molar mass of the structure shown.

Experiments:
[1] = system: colistin resistant MCR (+) E. Coli strains; assay: Synergy study: colistin MIC in the presence of compound; format: cell-based; settings: against mcr-1 bacteria; in words
Method in brief: (§1)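 CLSI broth microdilution with colistin and LC compound added in equal amounts, 2-fold serial dilution, alone or combined at fixed synergy concentration. MIC taken as lowest concentration with no visible growth after 24 hours of incubation.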

[2] = system: colistin resistant MCR (−) E. Cloacae strain 7023456439; assay: as above; format: cell-based; settings: strain 7023456439 E. Cloacae, compound at 10 μg (Table 2a: 10 ug/ml)
Method in brief: as §1

[3] = system: colistin resistant MCR (−) E. Coli strains; assay: as above; format: cell-based; settings: compound at 10 μg (Table 2a: 10 ug/ml)
Method in brief: as §1

[4] = Calcein leakage from large unilamellar vesicles; settings: vesicles of 100 nm, DOPE/DOPG=3/1
From the text: FIG. 20 refers to a graph showing calcein leakage of LC100 and LC101 using large unilamellar vesicles of 100 nm. The lipid composition of the vesicle is DOPE/DOPG=3/1, mimicking the bacterial inner membrane. […] Further increase of LC100 or LC101 leads to decrease in the florescence because of a fluorescence quenching effect.

[5] = system: colistin resistant MCR (+) E. Coli strains; assay: MIC, broth microdilution, compound alone; format: cell-based; settings: compound alone
Method in brief: (§2)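 Modified CLSI broth microdilution; inoculum from 18–20 h TSA colonies adjusted to 0.5 McFarland, ~5×10^5 CFU/mL per well. Plates incubated 24 h at 35 °C; turbidity may be read at OD600. MIC defined as concentration giving 99% inhibition.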

[6] = system: colistin resistant MCR (−) E. Cloacae strain 7023456439; assay: MIC, broth microdilution, compound alone; format: cell-based; settings: strain 7023456439 E. Cloacae
Method in brief: as §2

[7] = system: colistin resistant MCR (−) E. Coli strains; assay: MIC, broth microdilution, compound alone; format: cell-based
Method in brief: as §2

[8] = system: 6083655967 [MCR 1+; E.Coli]; assay: Synergistic study between LC100 or LC101 with B2088; format: cell-based; settings: for Combination MIC: strain 6083655967, value of each component
Procedure: The MICs of the individual drugs and LC compound in combinations were determined using the broth microdilution technique as recommended by the CLSI whereby the two anti-microbial agents were added in an equal amount. (e.g.: 50 μL of Colistin: 50 μL of LC compounds). Diluted media containing compounds and antibiotics will be serially diluted 2-fold, and LC compounds and antibiotics alone or in combination will be assayed at fixed synergy concentration. In all cases, the lowest concentration at which no visible growth occurred was be recorded to be the MIC value of individual and combined antibacterial agents. The results were obtained after 24 hours of incubation.
Using the combination of LC100 and colistin, the activity of a broad range of strains was further tested (Table 7).

[9] = system: Gram positive bacteria (SA and MRSA strains); assay: Antimicrobial effect on Gram positive bacteria (Table 8); format: cell-based; parameters: key to antimicrobial effect on Gram positive bacteria: MIC (concentration giving 99% inhibition), concentrations in μg; settings: compound alone
Procedure: MIC experiments of the antimicrobial agents were determined by a modified broth microdilution method in accordance with the Clinical and Laboratory Standards Institute (CLSI) guidelines using 96 well culture plates. In brief, serial dilutions of all plates were prepared at different concentrations (μg). The inoculum suspension was prepared by adding isolated colonies from a 18-20 hours on TSA plate into phosphate buffer (0.31 mM, pH 7.2) or in water for injection (BBraun) and adjusting the suspension to a turbidity equivalent to 0.5 McFarland Standard. Each well contained a final bacterial concentration of approximately 5×10^5 colony forming units (CFU)/mL. The plate was covered and incubated at 35° C. for 24 hours. […] For the microdilution plates, turbidity in wells can be measured at OD600 using TECAN infinite M200Pro. MIC was determined as […] concentration that gives a 99 percent inhibition.
The antimicrobial activity of the inventive combination was also tested against Gram positive bacteria, including the multi-drug resistant strains, such as MRSA. […] This means the combination of LC100/LC101 with colistin has broad antimicrobial spectrum, being active against both Gram positive and Gram negative bacteria.

COC(=O)C(CCCNC(=N)N)NC(=O)COc1ccc(/C=C/C(=O)c2ccc(OCC(=O)NC(CCCNC(=N)N)C(=O)OC)c(CC=C(C)C)c2O)cc1 (stereo not drawn) [LC101]
synergy with colistin [1]: excellent synergy | Colistin MIC in the presence of the compound [2]: >12.5 µg/mL | Colistin MIC in the presence of the compound ([3]; strain 6083672926, MCR(−)): <0.195 µg/mL | Colistin MIC in the presence of the compound ([3]; strain 7023446108, MCR(−)): <0.195 µg/mL | Colistin MIC in the presence of the compound ([3]; strain 7033607097, MCR(−)): <0.195 µg/mL | calcein leakage / disruption of vesicles [4]: significant florescence was detected | MIC ([5]; strain 6075066346, MCR (+)): 25 µg/mL (≈ 32 µM) | MIC ([5]; strain 6083655967, MCR (+)): 25 µg/mL (≈ 32 µM) | MIC ([5]; strain 6103645107, MCR (+)): 25 µg/mL (≈ 32 µM) | MIC ([5]; strain 6123520276, MCR (+)): 50 µg/mL (≈ 64 µM) | MIC ([5]; strain 7013177695, MCR (+)): 25 µg/mL (≈ 32 µM) | MIC ([5]; strain 7023436560, MCR (+)): 25 µg/mL (≈ 32 µM) | MIC ([5]; strain 7023444207, MCR (+)): 25 µg/mL (≈ 32 µM) | MIC [6]: >50 µg/mL | MIC ([7]; strain 6083672926, MCR (−)): 25 µg/mL (≈ 32 µM) | MIC ([7]; strain 7023446108, MCR (−)): 25 µg/mL (≈ 32 µM) | MIC ([7]; strain 7033607097, MCR (−)): 50 µg/mL (≈ 64 µM) | Combination MIC ([8]; combination B2088 (Ac) + LC 101): 2 µg/mL | Combination MIC ([8]; combination B2088 + LC 101): 2 µg/mL | level of synergistic effect with B2088 ([8]; killing E. coli with the mcr-1 mutation): 1 µg/mL | activity against Gram positive strains ([9]; in words): good activity | antimicrobial effect on Gram positive bacteria ([9]; strain MRSA ATCC 43300): 6.25 | antimicrobial effect on Gram positive bacteria ([9]; strain MRSA ATCC 700699): 6.25 | antimicrobial effect on Gram positive bacteria ([9]; strain MRSA DM 21455): 3.125 | antimicrobial effect on Gram positive bacteria ([9]; strain SA ATCC 6538): 3.125 | antimicrobial effect on Gram positive bacteria ([9]; strain SA ATCC 29213): 3.125 | antimicrobial effect on Gram positive bacteria ([9]; strain SA DM 4400R): 3.125
